The values that follow are results of earlier work, collected in US20070243268A1, “Compositions for regulating intestinal disorders and methods of use thereof” (priority 2005, published 2007).

Each structure is given as a SMILES string.

The data set has as its system prostate cancer. The settings on record: 970 men, 200 mcg selenium daily (as selenium-enriched yeast) for 4.5 years.

For `[Se]` [selenium], the “reduction in the incidence of prostate cancer” value is given as 63%.
